The values that follow are results of earlier work, collected in US12728103B2, “Pharmaceutical composition comprising mitotane administered orally for treatment of adrenocortical carcinoma and Cushing's syndrome” (priority 2019, dated 2026).

The structures appear in SMILES notation.

For `Clc1ccc(C(c2ccccc2Cl)C(Cl)Cl)cc1` (centres unmarked) [Mitotane, ortho,para'dichloro-diphenyl-dichloroethane], the “concentration in fat relative to plasma” value (accumulation in fat) is reported as approximately 200 times. Also, under “humans, conventional tablet”, the “product found in the faeces in an unmetabolized form” value is on record as 60%. For the same compound, for the setting “patients”, the “mitotaemia at which neurological disorders (ataxia, depressive syndrome) occur” value is “exceeds 20 mg/L” and the “plasma concentration to be reached to be effective” value is given as “at least 14 mg/L”. Further, the “treatment time to reach the effective plasma concentration” value (patients, average) is 3 months.
